# Test results reported in patent publication US8648169B2, “Methods of use of Trk receptor modulators” (The Royal Institution for the Advancement of …, priority 2006, dated 2014).
# Values joined by “and” are separate entries in the source; they are usually repeats but may differ in a detail not shown here. Equal entries are not always repeated. “Also recorded” adds a separate entry of the source. No end group written: not given here.
# Key:
# [1] = test system: retinal ganglion cells (RGCs); assay: RGC loss in ocular hypertension (glaucoma) model, retrogradely labeled surviving RGCs counted in flat mounted retinas;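 for all read-outs here: female Wistar rats aged 8 weeks with three episcleral veins cauterized in the right eye, sham-operated left eye as normal IOP control, at least six retinas averaged per group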; conditions: for % RGCs loss at day 42 (vs. Norma) / % RGCs loss at day 49 (vs. Normal): cauterized eye; for RGC loss (% of normal IOP): +daily betaxolol (days 4-35)
# Experimental: Using retrograde tracers, surviving RGCs were labeled at the cell soma and flat retinal spreads were analyzed for RGC numbers (Table 2).
# Surviving RGCs, identified by retrograde labeling, were counted at day 42 post-surgery. In this protocol, the TrkA agonist or controls were not given between days 21 and 42, to evaluate whether any protection could be long-lived. […] Each data point represents the average of at least 6 retinas/experimental group±sd. […] Peptidomimetic D3 (TrkA agonist) or controls were injected intraocularly, each injection at 1 μg in 1 μl. […] Retrogradely labeled surviving RGCs at day 42 post-cauterization were counted in flat mounted retinas (except rows 3 and 4 that were terminated at days 14 and 28). Two investigators counted the RGCs, with one unaware of the groups.
# Episcleral cauterization was performed under anesthesia in Wistar rats, female, 8 weeks of age. After a conjunctival incision, extra-ocular muscles were isolated and the major limbal draining veins were identified based on location, relative immobility, larger caliber and branching pattern. Cauterization of three episcleral vessels in the right eye were done with a 30″ cautery tip. The left eye in each animal was used as normal IOP control after sham-surgery (conjuctival incisions with no cauterization). […] Planar ophthalmoscopy was used to confirm normal perfusion of the retina at elevated IOP. […] IOP was measured using a Tonopen XL tonometer under light anesthesia (intramuscular injection of ketamine, 4 mg/kg; xylazine, 0.32 mg/kg; and acepromazine, 0.4 mg/kg). Initially IOP was measured daily (three consecutive readings are taken each time) and then weekly until termination.
# A puncture was made in the eye wall with a 30 G needle to place a cannula in the orbit. The tip of the needle was inserted at a 45° angle through the sclera into the vitreous body. This route of administration avoided injury to eye structures.
# [2] = test system: intraocular pressure (IOP) of rat eyes
# From the text: High IOP was induced in rat eyes, by reducing aqueous humor outflow through episcleral vein cauterization, while the contralateral eyes were sham-operated and were used as controls (FIG. 2).
# [3] = target: T1, p75 receptor (Homo sapiens, UniProt P08138); conditions: cited from earlier work
# T1 sequence (P08138 29-427): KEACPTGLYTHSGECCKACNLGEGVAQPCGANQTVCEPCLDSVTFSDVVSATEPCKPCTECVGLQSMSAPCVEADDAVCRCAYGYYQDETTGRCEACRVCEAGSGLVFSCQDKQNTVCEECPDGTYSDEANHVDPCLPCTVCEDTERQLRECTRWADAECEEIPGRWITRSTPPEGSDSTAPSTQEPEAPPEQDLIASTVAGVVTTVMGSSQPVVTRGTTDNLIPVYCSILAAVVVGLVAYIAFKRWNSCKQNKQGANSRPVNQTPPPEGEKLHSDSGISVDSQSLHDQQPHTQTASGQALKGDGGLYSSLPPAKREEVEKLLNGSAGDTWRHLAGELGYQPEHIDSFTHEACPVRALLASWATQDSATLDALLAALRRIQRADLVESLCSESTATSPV
# [4] = test system: axotomized RGCs; conditions: other studies; cited from earlier work
# [5] = test system: CNS; conditions: cited from earlier work
# [6] = test system: axotomized RGCs; assay: RGC survival in optic nerve axotomy; assay type: in vivo
# From the text: It is important to contrast the results in this glaucoma model with those published in optic nerve axotomy (where the optic nerve is sectioned or crushed and RGC axons are damaged). The two are very different models of RGC damage, where glaucoma is chronic and progressive and is an intraocular disease while axotomy is acute and is an extraocular disease. Thus, in optic nerve axotomy NTFs have been applied successfully. The survival of an axotomized optic nerve was promoted by NGF, BDNF, NT-4, CNTF, as well as bFGF, and GDNF.
# [7] = target: TrkA (Homo sapiens, UniProt P04629); conditions: irrespective of whether the p75 receptor is expressed; cited from earlier work
# [8] = daily betaxolol days 14 to 42 (~17 days of high IOP), intraocular injections 1 μg at days 14 & 21
# [9] = no betaxolol, 42 days of high IOP, intraocular injections 1 μg at days 14 & 21
# [10] = daily betaxolol days 14-49 (~17 days of high IOP), intraocular injections at days 14 & 21
# [11] = no betaxolol, 49 days of high IOP, intraocular injections at days 14 & 21
# Chain of TrkA (P04629 33-796, species assumed): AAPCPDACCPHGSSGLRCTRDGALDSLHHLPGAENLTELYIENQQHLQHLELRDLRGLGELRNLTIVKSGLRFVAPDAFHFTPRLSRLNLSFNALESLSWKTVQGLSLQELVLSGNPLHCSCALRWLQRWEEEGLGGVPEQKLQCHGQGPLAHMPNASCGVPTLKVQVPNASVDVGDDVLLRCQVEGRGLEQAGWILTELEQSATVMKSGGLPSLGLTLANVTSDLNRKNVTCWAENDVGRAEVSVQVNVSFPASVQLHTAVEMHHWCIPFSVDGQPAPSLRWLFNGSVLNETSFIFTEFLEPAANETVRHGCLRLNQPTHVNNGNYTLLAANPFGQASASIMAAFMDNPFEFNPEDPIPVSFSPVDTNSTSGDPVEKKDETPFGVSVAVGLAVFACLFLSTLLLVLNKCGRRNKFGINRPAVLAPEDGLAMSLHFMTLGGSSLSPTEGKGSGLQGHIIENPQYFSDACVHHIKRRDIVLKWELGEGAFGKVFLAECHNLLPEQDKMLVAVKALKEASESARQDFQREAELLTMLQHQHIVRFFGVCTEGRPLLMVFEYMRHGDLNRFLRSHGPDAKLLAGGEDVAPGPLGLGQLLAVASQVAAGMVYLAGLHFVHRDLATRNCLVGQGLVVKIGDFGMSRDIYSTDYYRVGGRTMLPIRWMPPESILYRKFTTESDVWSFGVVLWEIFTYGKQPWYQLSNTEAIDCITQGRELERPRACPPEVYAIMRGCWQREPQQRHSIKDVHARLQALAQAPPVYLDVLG
compound,measurement,setting,value
"NGF: Nerve Growth Factor, neurotrophin that binds TrkA and p75",% RGCs loss at day 42 (vs. Norma),[1]; [8],19 ± 4%
same,% RGCs loss at day 42 (vs. Norma),[1]; [9],42 ± 5%
same,protection of RGCs from death,"[1]; day 42 glaucoma, intraocular injections, with or without betaxolol",did not protect
"CC(C)NCC(O)COc1ccc(CCOCC2CC2)cc1 (stereo not drawn) [Betaxolol, betaxolol, reference compound]",% RGCs loss at day 49 (vs. Normal),"[1]; daily betaxolol days 14-49 alone, no intraocular injection",27 ± 5%
same,% RGCs loss at day 49 (vs. Normal),"[1]; daily betaxolol days 14-49 alone, no intraocular injection, listed as betaxolol",27%
same,% RGCs loss at day 42 (vs. Norma),"[1]; daily betaxolol days 14 to 42 alone, no intraocular injection",21 ± 2%
same,% RGCs loss at day 42 (vs. Norma),"[1]; daily betaxolol days 14 to 42 alone, no intraocular injection, listed as betaxolol",21%
same,RGC loss (% of normal IOP),[1]; day 0 post-cautery,0%
same,RGC loss (% of normal IOP),[1]; day 7 post-cautery,3 ± 3%
same,RGC loss (% of normal IOP),[1]; day 14 post-cautery,4 ± 3%
same,RGC loss (% of normal IOP),[1]; day 21 post-cautery,7 ± 3%
same,RGC loss (% of normal IOP),[1]; day 28 post-cautery,10 ± 4%
same,RGC loss (% of normal IOP),[1]; day 35 post-cautery,14 ± 2%
same,RGC loss (% of normal IOP),[1]; day 42 post-cautery,20 ± 5%
same,IOP by day 7,[2]; cauterized rats receiving daily topical betaxolol,normal IOPs
same,effect on normal IOP of non-cauterized eyes,"[2]; daily topical betaxolol, normal eyes",no significant effect
"YCATDIKGKECY (also: cyclic) [C(28-35) peptide, cyclic peptide analog of NGF β-turn 28-35, p75 receptor antagonist]",effect on p75-NGF interactions,[3],antagonist
same,protection of RGCs in vivo in optic nerve axotomy,[4],short-term protection
same,% RGCs loss at day 49 (vs. Normal),[1]; [10],29 ± 4%
same,% RGCs loss at day 49 (vs. Normal),[1]; [11],32 ± 11%
same,effect on RGC survival / apoptosis,"[1]; rat, in vivo",did not enhance RGC survival; also recorded: did not prevent or reduce RGC death
same,in vivo stability and efficacy in the CNS,[5]; previous in vivo studies,in vivo stability and efficacy
NCCCC[C@@H]1NC(=O)C(CCC(=O)O)NC(=O)c2cc([N+](=O)[O-])ccc2OCCC(C(=O)NCC(=O)O)NC1=O (stereo partly drawn) [D3],binding to p75,[3],does not bind
same,survival of axotomized RGCs,[6],strong survival-promoting effects
same,% RGCs loss at day 49 (vs. Normal),[1]; [10],18 ± 6%
same,% RGCs loss at day 42 (vs. Norma),[1]; [8],11% and 11 ± 4%
same,% RGCs loss at day 42 (vs. Norma),[1]; [9],29% and 29 ± 3%
same,% RGCs loss at day 49 (vs. Normal),[1]; [11],26 ± 6%
same,"protection of RGCs, formula (testloss−day14loss)/(day42loss−day14loss)*100","[1]; day 42, intraocular injections at days 14 and 21, no betaxolol",~25%
same,protection of RGCs,"[1]; day 42, intraocular injections at days 14 and 21 in combination with daily betaxolol",> 90%
same,effect on RGC survival / apoptosis,"[1]; day 49 glaucoma, intraocular injections at days 14 and 21, alone or with betaxolol",markedly reduced RGC apoptosis
same,activity at TrkA,[7],selective partial agonist
same,effect on cholinergic neurons in the CNS,"[5]; evaluated previously, spatial memory tests","protect the number, phenotype, and function of cholinergic neurons"
